According to patent US20260240179A1, “EDIBLE COMPOSITIONS AND METHODS FOR THE PRESERVATION OF FRUITS AND VEGETABLES” (ONYX LOTUS, LLC, priority 2023, published 2026):
“And” between values parts separate entries of the source, which are not always exact repeats. Identical values can stand only once.

Columns and labels:
blueberries = test: Weight of dipped blueberries over time (moisture retention and freshness)
Java plums = test: Weight of dipped Java plums over time (moisture retention and freshness)
Method: Starting with two sets of java plums, each set containing eight plums, a control set is dipped in 95% ethanol and placed at room temperature and 50% Relative humidity. A second set, the treatment set, is dipped in a zein composition consisting of 100 mL 95% Ethanol+6 g zein powder. […] were weighed on days 1, 2, 3, 4, 6, 7. Weights were taken to approximate moisture retention and freshness. After 7 days, average weight loss of control (no zein applied) Java plums was 28.5% compared to 23.6% weight loss for zein treatment. Java plums treated with zein retained 17.2% more moisture compared to untreated plums.

[1] = single fruit samples, zein dip (6 g in 100 mL 95% ethanol), 23-25° C., Day 1

Substance: zein
- average weight loss (blueberries; blueberries, after nine days, dipped in 100 mL 95% ethanol+6 g zein powder, control 43.1%): 37.2%
- more moisture retained compared to untreated berries (blueberries; blueberries, after nine days, zein dip): 13.7%
- Weight of blueberries, Day 1 (blueberries; [1]): 1.6 grams and 1.79 grams and 1.62 grams and 1.71 grams and 1.7 grams
- Weight of blueberries, Day 2 (blueberries; zein dip, 23-25° C., Day 2): 1.52 grams and 1.7 grams and 1.53 grams and 1.63 grams
- Weight of blueberries, Day 3 (blueberries; zein dip, 23-25° C., Day 3): 1.44 grams and 1.6 grams and 1.54 grams and 1.55 grams
- Weight of blueberries, Day 5 (blueberries; zein dip, 23-25° C., Day 5): 1.3 grams and 1.65 grams and 1.99 grams and 1.63 grams
- Weight of blueberries, Day 6 (blueberries; zein dip, 23-25° C., Day 6): 1.23 grams and 1.22 grams and 1.37 grams and 1.32 grams and 1.36 grams
- Weight of blueberries, Day 7 (blueberries; zein dip, 23-25° C., Day 7): 1.16 grams and 1.31 grams and 1.26 grams and 1.3 grams
- Weight of blueberries, Day 8 (blueberries; zein dip, 23-25° C., Day 8): 1.09 grams and 1.1 grams and 1.26 grams and 1.19 grams
- Weight of blueberries, Day 11 (blueberries; zein dip, 23-25° C., Day 11): 1.06 grams and 1.2 grams and 1.15 grams and 1.19 grams
- Weight of blueberries, Day 12 (blueberries; zein dip, 23-25° C., Day 12): 0.97 grams and 0.98 grams and 1.12 grams and 1.08 grams and 1.13 grams
- Weight of blueberries, Day 13 (blueberries; zein dip, 23-25° C., Day 13): 0.85 grams and 0.86 grams and 1.01 grams and 0.97 grams
- Weight of blueberries, Day 14 (blueberries; zein dip, 23-25° C., Day 14): 0.82 grams and 0.832 grams and 0.98 grams and 0.94 grams
- average weight loss (Java plums; Java plums, after 7 days, dipped in 100 mL 95% ethanol+6 g zein powder, control 28.5%): 23.6%
- more moisture retained compared to untreated plums (Java plums; Java plums, after 7 days, zein dip): 17.2%
- Weight of Java plums, Day 1 (Java plums; [1]): 15.82 grams and 15.19 grams and 11.63 grams and 11.83 grams and 16.16 grams and 14.65 grams and 14.35 grams and 12.88 grams
- Weight of Java plums, Day 2 (Java plums; zein dip, 23-25° C., Day 2): 15.03 grams and 14.42 grams and 10.79 grams and 11.19 grams and 13.65 grams and 13.13 grams and 13.63 grams and 12.24 grams
- Weight of Java plums, Day 3 (Java plums; zein dip, 23-25° C., Day 3): 14.46 grams and 13.88 grams and 10.33 grams and 10.72 grams and 12.96 grams and 19.13 grams and 11.78 grams
- Weight of Java plums, Day 4 (Java plums; zein dip, 23-25° C., Day 4): 13.72 grams and 13.16 grams and 9.72 grams and 9.12 grams and 12.36 grams and 12.67 grams and 11.18 grams
- Weight of Java plums, Day 6 (Java plums; zein dip, 23-25° C., Day 6): 12.53 grams and 12.02 grams and 8.73 grams and 11.33 grams and 11.39 grams and 10.2 grams
- Weight of Java plums, Day 7 (Java plums; zein dip, 23-25° C., Day 7): 12.15 grams and 11.66 grams and 8.4 grams and 11 grams and 11.03 grams and 9.87 grams
